According to patent US20210213103A1, “METHODS OF TREATING DRY EYE SYNDROME” (REGENTREE, LLC, priority 2016, published 2021):

Experiments:
[1] = injectable solution, 14 consecutive days, four escalating dose levels; cited from earlier work
subjects with dry eye = assay: Tear film break up time (TFBUT), Example 1 clinical study; assay type: in vivo, human; conditions: for Tear Film Break Up Time, change from baseline (mean): visit 2 (baseline) to visit 5, 0.05% and 0.1% groups pooled; for Tear Film Break Up Time, Mean Difference between Tβ4 and Placebo (Tβ4-Placebo): visit 2 to visit 5
Procedure: As used herein, the terms “tear breakup time” or “TBUT” or “tear film breakup time” or “TFBUT” can refer to a clinical test that measures the interval between the individual's last complete blink and the breakup of the tear film. The test can be used to assess for DES. To measure TBUT, fluorescein is instilled into the patient's tear film and the patient is asked not to blink while the tear film is observed under a broad beam of cobalt blue illumination. The TBUT is recorded as the number of seconds that elapse between the last blink and the appearance of the first dry spot in the tear film.
The presently disclosed subject matter also provides for methods of improving tear film stability. Tear film stability can be evaluated by various assessments in the art, including but not limited to a TFBUT analysis. […] In order to achieve maximum fluorescence, an appropriate waiting period is implemented after instillation before evaluating TFBUT. With the aid of a slit-lamp, the integrity of the tear film can be monitored by noting the time it takes to form […] from the time that the eye is opened. TFBUT can be measured in seconds using a stopwatch and a digital image recording system for one eye followed by the second eye. A negative test result is normal, whereby more than about 10 seconds of TFBUT is recorded.
This study was a multicenter, randomized, double-masked study designed to evaluate the efficacy and safety of 0.05% and 0.1% Tβ4 ophthalmic solution compared to placebo in subjects with dry eye.
The study consisted of two periods: a 7-day run-in period and a 28-day treatment period.
The clinical dosage form and packaging of Tβ4 ophthalmic solution and the placebo ophthalmic solutions were identical sterile, low-density polyethylene unit-dose non-preserved bottles. They were packaged in foil-wrap pouches to prevent light exposure, each containing single-use bottles. Throughout the study, between day 1 and day 29, patients were instructed to instill one drop of study medication in each eye four times daily, once in the morning, noon, afternoon and in the evening before bed. Patients were assigned randomization kit numbers in strict numerical sequence, using a code generated by an independent biostatistician. All investigators, study and site personnel, and patients were masked to the treatment assignments.
Patients were evaluated on day 8 (visit 3), day 15 (visit 4), and day 29 (visit 5) during the dosing period. Exposure to the CAE occurred on days 14 and 28. At each study visit, a panel of dry eye signs and symptoms and safety measures were evaluated (including both before [pre-CAE] and after [post-CAE] exposure).

[2] = higher tear film stability group
[3] = lower tear film stability group

In the case of thymosin beta 4 [Tβ4], the safety and tolerability [1] is given as “safe and well-tolerated”, the “Tear Film Break Up Time, change from baseline (mean)” value (subjects with dry eye; [2]) is given as 0.14 s and the “Tear Film Break Up Time, Mean Difference between Tβ4 and Placebo (Tβ4-Placebo)” value (subjects with dry eye; [2]) is given as 0.09 s. The “Tear Film Break Up Time, change from baseline (mean)” value (subjects with dry eye; [3]) was 0.74 s and the “Tear Film Break Up Time, Mean Difference between Tβ4 and Placebo (Tβ4-Placebo)” value (subjects with dry eye; [3]) was 0.20 s.
